Laboratory results taken from patent US8461305B2, “L-fucose α1→6 specific lectin” (J-Oil Mills, Inc., priority 2008, dated 2013).

Tests used:
[1] = frontal affinity chromatography (FAC), association constant to PA sugar chains having other L-fucose; type: binding; settings: for association constant Ka: 25 degrees C.
Method: (§1) The following section will describe a method of calculating an association constant by frontal affinity chromatography (FAC). This method is based on the following principle. […] Then, the elution front end (front) is observed immediately. When there is an affinity with lectin, the elution of the sugar chain is delayed.
(§2) The preparation of a lectin column used in the apparatus is performed in the method as described below. 1. Purified lectin is dissolved in 0.1 to 0.2M of NaHCO3 buffer solution (pH 8.3 to 8.5). 2. The lectin is immobilized, via a lectin primary amino group, a carrier such as NHS activated sepharose. 3. Then, the lectin is blocked by Tris buffer solution including primary amine or ethanolamine for example. 4. Lectin-sepharose is suspended in 10 mM Tris buffer, including 0.8% of NaCl (pH 7.4, TBS). Then, lectin immobilized resin is filled in a miniature column (φ2 mm×10 mm, 31.4 μl). 5. The miniature column in which the lectin immobilized resin is filled is protected by a holder and the lectin column is connected to an FAC automatic analysis apparatus (FAC-1, SHIMADZU CORPORATION).
(§3) Then, the elution of the PA sugar chain from the column is detected by a fluorescence detector (excitation wavelength/fluorescence wavelength: 310 nm/380 nm).
(§4) Based on the detection data, by using the elution front end (Vo) of the sugar chain (PA rhamnose) not interacting with lectin as a reference, the delay (V−Vo) of the elution front end (V) of a sugar chain interacting with lectin is calculated as an interaction strength. Then, based on the following FAC criteria expressions, the association constant (Ka) between the sugar chain and lectin is calculated based on V−Vo and Bt. If the interaction strength (V−Vo value) and the association constant are higher, a higher affinity is caused between lectin and an L-fucose α1→6 sugar chain.
(§5) [In the formula, A means substance used for the elution, Ao means the initial concentration of the substance A, B means a immobilized ligand, V means the elution volume, Vo means the elution front end volume of the substance not interacting with the immobilized ligand B at all, Bt means an effective ligand amount, Kd means a dissociation constant (an inverse of the association constant)].
(§6) Pyridylaminated (PA) sugar chains shown in FIG. 1 and FIG. 2 were used to frontal affinity chromatography (FAC) analysis. PA sugars were purchased from TAKARA BIO INC., SEIKAGAKU BIOBUSINESS CORPORATION, and Masuda Chemical Industries co., LTD. PA sugar were also obtained by pyridylaminating, by GlycoTAG®(TAKARA BIO INC.), an unlabeled sugar chain or a sugar chain obtained by subjecting a sugar chain to enzyme digestion for example.
(§7) Lectin was dissolved in 0.2 M NaHCO3 buffer solution (pH 8.3) including 0.5 M NaCl and coupled to the NHS-activated sepharose (GE Healthcare Bioscience) by following the manufacturer's instructions. Then, lectin immobilized sepharose was suspended in 10 mM Tris buffer (pH 7.4, TBS) including […] and the resultant matter was filled in a miniature column (φ2 mm×10 mm, 31.4 μl).
(§8) Frontal affinity chromatography was performed using FAC automatic analysis apparatus (FAC-1, SHIMADZU CORPORATION). In particular, the above-prepared lectin column was inserted to a stainless steel holder and the holder was connected to FAC-1 apparatus. The flow rate and the column temperature were maintained at 0.125 ml/min and 25 degrees C., respectively. After the miniature column was equilibrated by the TBS, an excessive volume (0.5 ml to 4 ml) of a PA sugar chain (3.75 nM or 7.5 nM) was continuously inputted to the column using an automatic sampling apparatus.
(§9) The fluorescent strength of the eluate of the PA sugar (excitation wavelength of 310 nm and fluorescence wavelength of 380 nm) was monitored to measure the interaction strength [a difference of the front end eluate to the standard oligosaccharide (PA rhamnose): V−V0]. […]

[2] = frontal affinity chromatography (FAC), association constant to PA sugar chains without L-fucose; type: binding
Method: as §1, §2, §3, §4, §5, §6, §7, §8, §9

Naematoloma sublateritium lectin [NSL]
binding to non-L-fucose α1→6 sugar chain ([1]; FAC): not detected at all | association constant Ka ([1]; Sugar chain No. 419): <1000 M⁻¹ | association constant Ka ([1]; Sugar chain No. 420): <1000 M⁻¹ | association constant Ka ([1]; Sugar chain No. 718): <1000 M⁻¹ | association constant Ka ([1]; Sugar chain No. 719): <1000 M⁻¹ | association constant Ka ([1]; Sugar chain No. 720): <1000 M⁻¹ | association constant Ka ([1]; Sugar chain No. 721): <1000 M⁻¹ | association constant Ka ([1]; Sugar chain No. 722): <1000 M⁻¹ | association constant Ka ([1]; Sugar chain No. 723): <1000 M⁻¹ | association constant Ka ([1]; Sugar chain No. 726): <1000 M⁻¹ | association constant Ka ([1]; Sugar chain No. 727): <1000 M⁻¹ | association constant Ka ([1]; Sugar chain No. 728 (as listed in Table 5/12)): <1000 M⁻¹ | association constant Ka ([1]; Sugar chain No. 729): <1000 M⁻¹ | association constant Ka ([1]; Sugar chain No. 730): <1000 M⁻¹ | association constant Ka ([1]; Sugar chain No. 731): <1000 M⁻¹ | association constant Ka ([1]; Sugar chain No. 739): <1000 M⁻¹ | association constant Ka ([1]; Sugar chain No. 909): <1000 M⁻¹ | association constant Ka ([1]; Sugar chain No. 910): <1000 M⁻¹ | association constant Ka ([1]; Sugar chain No. 931): <1000 M⁻¹ | association constant Ka ([1]; Sugar chain No. 932): <1000 M⁻¹ | association constant Ka ([1]; Sugar chain No. 933): <1000 M⁻¹ | binding to sugar chain not having L-fucose ([2]; FAC): not detected at all | association constant Ka ([2]; Sugar chain No. 001, sugar chain not having L-fucose): <1000 M⁻¹ | association constant Ka ([2]; Sugar chain No. 002, sugar chain not having L-fucose): <1000 M⁻¹ | association constant Ka ([2]; Sugar chain No. 003, sugar chain not having L-fucose): <1000 M⁻¹ | association constant Ka ([2]; Sugar chain No. 004, sugar chain not having L-fucose): <1000 M⁻¹ | association constant Ka ([2]; Sugar chain No. 005, sugar chain not having L-fucose): <1000 M⁻¹ | association constant Ka ([2]; Sugar chain No. 006, sugar chain not having L-fucose): <1000 M⁻¹ | association constant Ka ([2]; Sugar chain No. 007, sugar chain not having L-fucose): <1000 M⁻¹ | association constant Ka ([2]; Sugar chain No. 008, sugar chain not having L-fucose): <1000 M⁻¹ | association constant Ka ([2]; Sugar chain No. 009, sugar chain not having L-fucose): <1000 M⁻¹ | association constant Ka ([2]; Sugar chain No. 010, sugar chain not having L-fucose): <1000 M⁻¹ | association constant Ka ([2]; Sugar chain No. 011, sugar chain not having L-fucose): <1000 M⁻¹ | association constant Ka ([2]; Sugar chain No. 012, sugar chain not having L-fucose): <1000 M⁻¹ | association constant Ka ([2]; Sugar chain No. 013, sugar chain not having L-fucose): <1000 M⁻¹ | association constant Ka ([2]; Sugar chain No. 014, sugar chain not having L-fucose): <1000 M⁻¹ | association constant Ka ([2]; Sugar chain No. 101, sugar chain not having L-fucose): <1000 M⁻¹ | association constant Ka ([2]; Sugar chain No. 103, sugar chain not having L-fucose): <1000 M⁻¹ | association constant Ka ([2]; Sugar chain No. 104, sugar chain not having L-fucose): <1000 M⁻¹ | association constant Ka ([2]; Sugar chain No. 105, sugar chain not having L-fucose): <1000 M⁻¹ | association constant Ka ([2]; Sugar chain No. 107, sugar chain not having L-fucose): <1000 M⁻¹ | association constant Ka ([2]; Sugar chain No. 108, sugar chain not having L-fucose): <1000 M⁻¹ | association constant Ka ([2]; Sugar chain No. 301, sugar chain not having L-fucose): <1000 M⁻¹ | association constant Ka ([2]; Sugar chain No. 304, sugar chain not having L-fucose): <1000 M⁻¹ | association constant Ka ([2]; Sugar chain No. 305, sugar chain not having L-fucose): <1000 M⁻¹ | association constant Ka ([2]; Sugar chain No. 307, sugar chain not having L-fucose): <1000 M⁻¹ | association constant Ka ([2]; Sugar chain No. 308, sugar chain not having L-fucose): <1000 M⁻¹ | association constant Ka ([2]; Sugar chain No. 313, sugar chain not having L-fucose): <1000 M⁻¹ | association constant Ka ([2]; Sugar chain No. 314, sugar chain not having L-fucose): <1000 M⁻¹ | association constant Ka ([2]; Sugar chain No. 323, sugar chain not having L-fucose): <1000 M⁻¹ | association constant Ka ([2]; Sugar chain No. 501, sugar chain not having L-fucose): <1000 M⁻¹ | association constant Ka ([2]; Sugar chain No. 502, sugar chain not having L-fucose): <1000 M⁻¹ | association constant Ka ([2]; Sugar chain No. 503, sugar chain not having L-fucose): <1000 M⁻¹ | association constant Ka ([2]; Sugar chain No. 504, sugar chain not having L-fucose): <1000 M⁻¹ | association constant Ka ([2]; Sugar chain No. 701, sugar chain not having L-fucose): <1000 M⁻¹ | association constant Ka ([2]; Sugar chain No. 702, sugar chain not having L-fucose): <1000 M⁻¹ | association constant Ka ([2]; Sugar chain No. 703, sugar chain not having L-fucose): <1000 M⁻¹ | association constant Ka ([2]; Sugar chain No. 704, sugar chain not having L-fucose): <1000 M⁻¹ | association constant Ka ([2]; Sugar chain No. 705, sugar chain not having L-fucose): <1000 M⁻¹ | association constant Ka ([2]; Sugar chain No. 706, sugar chain not having L-fucose): <1000 M⁻¹ | association constant Ka ([2]; Sugar chain No. 707, sugar chain not having L-fucose): <1000 M⁻¹ | association constant Ka ([2]; Sugar chain No. 708, sugar chain not having L-fucose): <1000 M⁻¹ | association constant Ka ([2]; Sugar chain No. 709, sugar chain not having L-fucose): <1000 M⁻¹ | association constant Ka ([2]; Sugar chain No. 710, sugar chain not having L-fucose): <1000 M⁻¹ | association constant Ka ([2]; Sugar chain No. 711, sugar chain not having L-fucose): <1000 M⁻¹ | association constant Ka ([2]; Sugar chain No. 712, sugar chain not having L-fucose): <1000 M⁻¹ | association constant Ka ([2]; Sugar chain No. 713, sugar chain not having L-fucose): <1000 M⁻¹ | association constant Ka ([2]; Sugar chain No. 715, sugar chain not having L-fucose): <1000 M⁻¹ | association constant Ka ([2]; Sugar chain No. 716, sugar chain not having L-fucose): <1000 M⁻¹ | association constant Ka ([2]; Sugar chain No. 717, sugar chain not having L-fucose): <1000 M⁻¹ | association constant Ka ([2]; Sugar chain No. 724, sugar chain not having L-fucose): <1000 M⁻¹ | association constant Ka ([2]; Sugar chain No. 725, sugar chain not having L-fucose): <1000 M⁻¹ | association constant Ka ([2]; Sugar chain No. 728, sugar chain not having L-fucose): <1000 M⁻¹ | association constant Ka ([2]; Sugar chain No. 732, sugar chain not having L-fucose): <1000 M⁻¹ | association constant Ka ([2]; Sugar chain No. 733, sugar chain not having L-fucose): <1000 M⁻¹ | association constant Ka ([2]; Sugar chain No. 734, sugar chain not having L-fucose): <1000 M⁻¹ | association constant Ka ([2]; Sugar chain No. 735, sugar chain not having L-fucose): <1000 M⁻¹ | association constant Ka ([2]; Sugar chain No. 736, sugar chain not having L-fucose): <1000 M⁻¹ | association constant Ka ([2]; Sugar chain No. 737, sugar chain not having L-fucose): <1000 M⁻¹ | association constant Ka ([2]; Sugar chain No. 738, sugar chain not having L-fucose): <1000 M⁻¹ | association constant Ka ([2]; Sugar chain No. 901, sugar chain not having L-fucose): <1000 M⁻¹ | association constant Ka ([2]; Sugar chain No. 902, sugar chain not having L-fucose): <1000 M⁻¹ | association constant Ka ([2]; Sugar chain No. 903, sugar chain not having L-fucose): <1000 M⁻¹ | association constant Ka ([2]; Sugar chain No. 905, sugar chain not having L-fucose): <1000 M⁻¹ | association constant Ka ([2]; Sugar chain No. 907, sugar chain not having L-fucose): <1000 M⁻¹
